Assays:
[1] = tested on: acute peritonitis induced by zymosan A in mice; assay: Zymosan A-induced acute peritonitis in mice: IL-1β, IL-6 and neutrophil accumulation; assay type: in vivo; conditions: 1 mg/kg intraperitoneal 30 minutes before zymosan, 12 hours, N=6
Protocol: Acute peritonitis was induced by the injection of 1 mg zymosan A (Sigma-Aldrich) i.p. in 0.5 ml sterile PBS in mice. Twelve hours later the mice were sacrificed by CO2 exposure, and peritoneal cavities were washed with 4 ml ice-cold PBS containing 3 mM EDTA. Cells were stained with Turk's solution (0.01% crystal violet in 3% acetic acid) and counted using a Neubauer hemocytometer or were stained with FITC-conjugated mAb for Ly-6G/Gr1, F4/80, and corresponding isotype controls (eBioscience, Hatfield, U.K.), and subjected to flow-cytometry analysis using a BD FACSCalibur platform (BD Biosciences, Oxford, U.K.). Levels of IL-1B and IL-6 in quick frozen samples were quantified according to the manufacturer's instructions using ELISA Ready-SET-Go! (eBioscience). All animal studies were approved by and performed under the guidelines of the Ethical Committee for the Use of Animals, Barts and The London School of Medicine and Home Office regulations (Guidance on the Operation of Animals, Scientific Procedures Act, 1986). Male (7-8 wk old) C57BL/6J wild-type (WT) mice were purchased from Charles River Laboratories. Test Item A, 1 mg/kg or vehicle treatment were given intraperitoneal 30 minutes before induction of the acute peritonitis. N=6 for in both groups.

[2] = Phase I repeated dose study, peak and trough concentrations at steady conditions; assay type: in vivo, human; conditions: 200 mg once daily
[3] = tested on: early rheumatoid arthritis (RA) patients with active joint disease; assay: Phase IIa placebo-controlled study in early rheumatoid arthritis patients: CDAI; assay type: in vivo, human; conditions: for CDAI group mean, Baseline / CDAI group mean, Screening / CDAI group mean, Week 4 / CDAI group mean, Week 2 / CDAI group mean, Week 5 / CDAI Difference / CDAI Difference in %: n = 31; for CDAI group mean, Baseline / CDAI group mean, Screening: before treatment; for CDAI group mean, Week 4: end of treatment; for CDAI group mean, Week 2: mid-treatment; for CDAI group mean, Week 5: one week follow-up after last dosage; for CDAI Difference / CDAI Difference in %: week 4 vs baseline
Protocol: (§1) The study population will consist of newly diagnosed subjects with severe active RA (CDAI (Clinical disease activity score)>22) who are to start up-titration with methotrexate (MTX).
The doses used in this Example are calculated based on the specific acetate salt form.
The study population will consist of newly diagnosed subjects with severe active RA (CDAI >22) who are to start up-titration with MTX. A minimum of 90 subjects are expected to complete the study; plus 45 subjects from Bulgaria and/or Moldova for a sub-study. Up to 120 subjects are planned to be enrolled to account for discontinuation rate, and up to 60 subjects for the sub-study.
The CDAI is a clinical composite score for following patients with RA.
Descriptive changes in CDAI where CDAI=SJC (28)+TJC (28)+PGA+IGA; • SJC (28): Swollen 28-Joint Count (shoulders, elbows, wrists, MCPs, PIPs including thumb IP, knees); • TJC (28): Tender 28-Joint Count (shoulders, elbows, wrists, MCPs, PIPs including thumb IP, knees); • PGA: Patient Global Disease Activity (patient's self-assessment of overall RA disease activity on a scale 0-100 where 100 is maximal activity); • IGA: Physician's Global Disease Activity (evaluator's assessment of the subject's overall RA disease activity on a scale 0-100 where 100 is maximal activity)
The CDAI will be scored at screening, baseline, after 2 weeks and 4 weeks treatment, and at the final visit (one week after final dose).

[4] = Phase IIa study in early RA patients: blood pressure and clinically notable vital sign abnormalities; assay type: in vivo, human; conditions: for MAP Average/Median: MAP = DAP + ⅓(SAP − DAP); for CNA (clinically notable vital sign abnormalities): SAP ≥160, <90, DAP ≥105, <50
Text: as §1
Safety measures (AEs, SAEs, including laboratory abnormalities and vital signs such as blood pressure) will be registered during the whole study duration.

MC1R = conditions: cited from earlier work
MC3R = conditions: cited from earlier work
macrophages = conditions: cited from earlier work
melanocytes = conditions: cited from earlier work
peritonitis = conditions: oral; cited from earlier work
[5] = tested on: experimental inflammatory arthritis; conditions: oral; cited from earlier work
[6] = 50 mg AP1189 once daily plus MTX
[7] = 100 mg AP1189 once daily plus MTX

C Trough (Mean +/− SD, N = 9) [2]: 186 ± 45 ng/mL
SMILES: NC(N)=N/N=C/C=C/c1cccn1-c1ccccc1[N+](=O)[O-] [AP1189, (E)-N-trans-{3-[1-(2-nitrophenyl)-1H-pyrrol-2-yl]-allylidene}-aminoguanidium acetate]
reduction of neutrophil accumulation compared to pretreatment with vehicle [1]: 70%
reduction of IL-1β levels compared to pretreatment with vehicle ([1]; p<0.05 vs vehicle): 37%
reduction of IL-6 levels compared to pretreatment with vehicle ([1]; p<0.05 vs vehicle): 59%
CDAI group mean, Baseline [3, 6]: 36.1
CDAI group mean, Screening [3, 6]: 35.6
CDAI group mean, Week 4 [3, 6]: 24.2
CDAI group mean, Week 2 [3, 6]: 29.9
CDAI group mean, Week 5 [3, 6]: 22.9
CDAI Difference [3, 6]: −11.9
CDAI Difference in % [3, 6]: 33%
CDAI group mean, Baseline [3, 7]: 39
CDAI group mean, Screening [3, 7]: 38.9
CDAI group mean, Week 4 [3, 7]: 23.9
CDAI group mean, Week 2 [3, 7]: 28.9
CDAI group mean, Week 5 [3, 7]: 21.3
CDAI Difference [3, 7]: −15.1
CDAI Difference in % [3, 7]: 39%
effect in reducing CDAI ([3]; both tested dosages, 50 mg and 100 mg): significant effect
DAP Average/Median ([4]; 50 mg AP1189, 4 Weeks, n 33): 79.9 mmHg
SAP Average/Median ([4]; 50 mg AP1189, 4 Weeks, n 33): 129.1 mmHg
MAP Average/Median ([4]; 50 mg AP1189, 4 Weeks, n 33): 96.3 mmHg
CNA (clinically notable vital sign abnormalities) ([4]; 50 mg AP1189, 4 Weeks, n 33): 2 (6%)
DAP Average/Median ([4]; 50 mg AP1189, Base Line, n 33): 80.0 mmHg
SAP Average/Median ([4]; 50 mg AP1189, Base Line, n 33): 131.3 mmHg
MAP Average/Median ([4]; 50 mg AP1189, Base Line, n 33): 97.1 mmHg
CNA (clinically notable vital sign abnormalities) ([4]; 50 mg AP1189, Base Line, n 33): 4 (11%)
decrease in DAP after 4 weeks treatment ([4]; 50 mg AP1189 group): 0.1 mmHg
decrease in MAP after 4 weeks treatment ([4]; 50 mg AP1189 group): 0.8 mmHg
decrease in SAP after 4 weeks treatment ([4]; 50 mg AP1189 group): 2.2 mmHg
DAP Average/Median ([4]; 100 mg AP1189, 4 Weeks, n 34): 80.3 mmHg
SAP Average/Median ([4]; 100 mg AP1189, 4 Weeks, n 34): 126.8 mmHg
MAP Average/Median ([4]; 100 mg AP1189, 4 Weeks, n 34): 95.8 mmHg
CNA (clinically notable vital sign abnormalities) ([4]; 100 mg AP1189, 4 Weeks, n 34): 1 (3%)
DAP Average/Median ([4]; 100 mg AP1189, Base Line, n 34): 81.1 mmHg
SAP Average/Median ([4]; 100 mg AP1189, Base Line, n 34): 129.9 mmHg
MAP Average/Median ([4]; 100 mg AP1189, Base Line, n 34): 97.4 mmHg
CNA (clinically notable vital sign abnormalities) ([4]; 100 mg AP1189, Base Line, n 34): 4 (11%)
decrease in DAP after 4 weeks treatment ([4]; 100 mg AP1189 group): 0.8 mmHg
decrease in MAP after 4 weeks treatment ([4]; 100 mg AP1189 group): 1.6 mmHg
decrease in SAP after 4 weeks treatment ([4]; 100 mg AP1189 group): 3.1 mmHg
number of observed abnormalities in blood pressure ([4]; both treatment groups (50 mg and 100 mg), 4 weeks, no change in placebo group): reduced
ERK1/2 phosphorylation (MC1R; MC1R): cause ERK1/2 phosphorylation
canonical cAMP generation (MC1R; MC1R): does not induce canonical CAMP generation
agonist character at MC1R (MC1R): biased agonist
ERK1/2 phosphorylation (MC3R; MC3R): cause ERK1/2 phosphorylation
canonical cAMP generation (MC3R; MC3R): does not induce canonical CAMP generation
agonist character at MC3R (MC3R): biased agonist
cytokine release (macrophages): reduce cytokine release
melanogenesis (melanocytes): no melanogenesis was induced
anti-inflammatory action in peritonitis (peritonitis): elicits anti-inflammatory actions
macroscopic and histological parameters of joint disruption [5]: significant reduction

From US20250302804A1, “RESOMELAGON AND ITS DERIVATIVES FOR THE TREATMENT OF CARDIOVASCULAR DISEASE, HYPERTENSION AND ATHEROSCLEROSIS” (SYNACT PHARMA ApS, priority 2022, published 2025)
